# Biological target: mPGES-1 in A549 cells (Homo sapiens (Human), UniProt O14684)
# Assay: A549 cell-based assay (PGE2 formation, 50% human serum)
# Settings: IL-1β 5 ng/ml, 10 nM arachidonic acid, 20-24 h, read-out: mPGES-1 inhibitory effect IC50 in the cell assay
# Experimental: Although the enzymatic assay is a high throughput assay the disadvantage is that it uses a recombinant protein which is not in its natural environment. Accordingly a cellular assay was established in which a cell line of human origin (A549) expressing the mPGES-1 protein was used. In addition in order to mimic the situation in humans in which compounds can be bound to plasma proteins 50% human serum is added in the assay.
# A549 cells (ATCC: CCL-185) are grown to about 90% confluence in F-12K Nutrient Mixture (Kaighn's Mod. Gibco) containing 10% FBS in a humified incubator at 37° C. and 5% CO2. Cells were detached using Trypsin-EDTA. A549 cells were seeded in a 384-well collagene plate at a density of 7000 cells/well (50 μl) in F-12 medium containing 1% Penicillin-Streptomycin and 50% human serum. The cells were allowed to attach for 3-4 h. After that the cells were incubated for 20-24 h in F-12k medium supplemented with 50% human serum, 1% Penicillin-Streptomycin and containing IL-1β at a final concentration of 5 ng/ml as well as 10 nM arachidonic acid in the presence of a vehicle or a test compound. The total volume is 100 μl.
# Concentrations of PGE2 in the cell free medium (10 μl) were measured using a commercially available HTRF kit from Cisbio (as described above). The PGE2 formation in the absence of test compound was taken as 100%.
# IC50 values were derived from at 6-8 point titrations using conventional software.
# Chain of mPGES-1 in A549 cells (O14684 whole entry): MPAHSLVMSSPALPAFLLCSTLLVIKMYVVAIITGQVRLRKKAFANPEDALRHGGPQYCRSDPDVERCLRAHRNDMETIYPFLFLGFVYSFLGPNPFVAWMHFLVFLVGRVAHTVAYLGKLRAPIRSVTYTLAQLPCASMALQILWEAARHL
row,IC50,SMILES
1,197 nM,Cn1c(Nc2c(Cl)ccc(CNC(=O)C(C)(C)C)c2Cl)nc2cc(C(=O)NC3CC(F)(F)C3)c(NCC(F)F)cc21 [Example 16]
2,1 nM,"Cn1c(Nc2c(Cl)ccc(CNC(=O)C(C)(C)C)c2Cl)nc2cc(C(=O)N[C@H]3CC[C@H](C(F)(F)F)CC3)c(N3CCC(F)(F)C3)cc21 [Example 20, N-(trans-4-Trifluoromethyl-cyclohexyl)-2-{2,6-dichloro-3-[(2,2-dimethyl-propionylamino)-methyl]-phenylamino}-6-[3,3-difluoro-pyrrolidinyl]-1-methyl-1H-benzimidazole-5-carboxylic acid amide]"
3,< 1 nM,"Cn1c(Nc2c(Cl)ccc(CNC(=O)C(C)(C)C)c2Cl)nc2cc(C(=O)N[C@H]3CC[C@H](C(F)(F)F)CC3)c(N3CCC(C(F)(F)F)CC3)cc21 [Example 52, N-(trans-4-Trifluoromethyl-cyclohexyl)-2-{2,6-dichloro-3-[(2,2-dimethyl-propionylamino)-methyl]-phenylamino}-6-[4-trifluoromethyl-piperidinyl]-1-methyl-1H-benzimidazole-5-carboxylic acid amide]"
4,2 nM,"CC(C)(C)C(=O)NCc1ccc(Cl)c(Nc2nc3cc(C(=O)Nc4ccc(OC(F)(F)F)cc4)c(N4CC[C@@H](F)C4)cc3n2CC(F)F)c1Cl [Example 77, (R)—N-(4-Trifluoromethoxy-phenyl)-2-{2,6-dichloro-3-[(2,2-dimethyl-propionylamino)-methyl]-phenylamino}-6-[3-fluoro-pyrrolidinyl]-1-(2,2-difluorethyl)-1H-benzimidazole-5-carboxylic acid amide]"
5,3.5 nM,CN(Cc1nnc[nH]1)c1cc2c(cc1C(=O)N[C@H]1CC[C@H](C(F)(F)F)CC1)nc(Nc1c(Cl)ccc(CNC(=O)C(C)(C)C)c1Cl)n2C [Example 114]
6,2 nM,Cc1n[nH]c(CN(C)c2cc3c(cc2C(=O)N[C@H]2CC[C@H](C(F)(F)F)CC2)nc(Nc2c(Cl)ccc(CNC(=O)C(C)(C)F)c2Cl)n3C)n1 [Example 115]
7,80 nM,CN(Cc1ncnn1C)c1cc2c(cc1C(=O)N[C@H]1CC[C@H](C(F)(F)F)CC1)nc(Nc1c(Cl)ccc(CNC(=O)C(C)(C)C)c1Cl)n2C [Example 116]
8,1 nM,Cn1c(Nc2c(Cl)ccc(CNC(=O)C(C)(C)F)c2Cl)nc2cc(C(=O)N[C@H]3CC[C@H](C(F)(F)F)CC3)c(N3CCC4(CC3)CC4)cc21 [Example 123]
9,2 nM,Cn1c(Nc2c(Cl)ccc(CNC(=O)C(C)(C)F)c2Cl)nc2cc(C(=O)N[C@H]3CC[C@H](C(F)(F)F)CC3)c(N3CCC(C(C)(C)O)CC3)cc21 [Example 124]
10,1.4 nM,Cn1c(Nc2c(Cl)ccc(CNC(=O)C(C)(C)C)c2Cl)nc2cc(C(=O)N[C@H]3CC[C@H](C(F)(F)F)CC3)c(N3CCC(F)CC3)cc21 [Example 125]
11,2 nM,Cn1c(Nc2c(Cl)ccc(CNC(=O)C(C)(C)F)c2Cl)nc2cc(C(=O)Nc3ccc(OC(F)(F)F)cc3)c(N3CCOCC3)cc21 [Example 142]
12,2.6 nM,Cc1n[nH]c(CN(C)c2cc3c(cc2C(=O)Nc2ccc(OC(F)(F)F)cc2)nc(Nc2c(Cl)ccc(CNC(=O)C(C)(C)F)c2Cl)n3C)n1 [Example 143]
13,< 1 nM,Cn1c(Nc2c(Cl)ccc(CNC(=O)C(C)(C)F)c2Cl)nc2cc(C(=O)N[C@H]3CC[C@H](C(F)(F)F)CC3)c(N3CCOCC3)cc21 [Example 146]
14,2 nM,Cn1c(Nc2c(Cl)ccc(CNC(=O)C(C)(C)F)c2Cl)nc2cc(C(=O)NCCC(F)(F)F)c(N3CCC4(CC3)CC4)cc21 [Example 147]
15,1.4 nM,Cn1c(Nc2c(Cl)ccc(CNC(=O)C(C)(C)C)c2Cl)nc2cc(C(=O)NCC(F)(F)C(F)(F)F)c(N3CCC(F)CC3)cc21 [Example 151]
16,17 nM,Cc1n[nH]c(CN(C)c2cc3c(cc2C(=O)NCC(F)(F)C(F)(F)F)nc(Nc2c(Cl)ccc(CNC(=O)C(C)(C)F)c2Cl)n3C)n1 [Example 152]
17,4.6 nM,Cn1c(Nc2c(Cl)ccc(CNC(=O)C(C)(C)F)c2Cl)nc2cc(C(=O)NCC(F)(F)C(F)(F)F)c(N3CCOCC3)cc21 [Example 153]
18,6 nM,Cn1c(Nc2c(Cl)ccc(CNC(=O)C(C)(C)C)c2Cl)nc2cc(C(=O)N[C@H]3CC[C@@H](C(F)(F)F)CC3)c(N3CC4CC4C3)cc21 (stereo partly shown) [Example 155]
19,1 nM,Cn1c(Nc2c(Cl)ccc(CNC(=O)C(C)(C)C)c2Cl)nc2cc(C(=O)Nc3cc(C(C)(C)C)no3)c(N3CCC(C(F)(F)F)CC3)cc21 [Example 157]
20,2.4 nM,CC(C)(O)Cn1c(Nc2c(Cl)ccc(CNC(=O)C(C)(C)C)c2Cl)nc2cc(C(=O)Nc3ccc(OC(F)(F)F)cc3)c(N3CCC(C(F)(F)F)CC3)cc21 [Example 167]

row,IC50,SMILES
1,5 nM,CC(C)(C)C(=O)NCc1ccc(Cl)c(Nc2nc3cc(C(=O)Nc4ccc(OC(F)(F)F)cc4)c(N4CCC(C(F)(F)F)CC4)cc3n2CCC(N)=O)c1Cl [Example 169]
2,110 nM,CC(C)(C)C(=O)NCc1ccc(Cl)c(Nc2nc3cc(C(=O)N[C@H]4CC[C@H](C(F)(F)F)CC4)c(N4CCOCC4)cc3n2CCC(N)=O)c1Cl [Example 170]
3,6 nM,CC(C)(C)C(=O)NCc1ccc(Cl)c(Nc2nc3cc(C(=O)N[C@H]4CC[C@H](C(F)(F)F)CC4)c(N4CCC(C(F)(F)F)CC4)cc3n2CCC(N)=O)c1Cl [Example 171]
4,> 100 nM,Cn1c(Nc2c(Cl)ccc(CNC(=O)c3cccc[n+]3[O-])c2Cl)nc2cc(C(=O)NCCC(F)(F)F)c(N3CCC(C(F)(F)F)CC3)cc21 [Example 174]
5,> 100 nM,Cn1nc(C(=O)NCc2ccc(Cl)c(Nc3nc4cc(C(=O)NCCC(F)(F)F)c(N5CCC(C(F)(F)F)CC5)cc4n3C)c2Cl)cc1N [Example 180]
6,> 100 nM,Cn1c(Nc2c(Cl)ccc(CNC(=O)c3cc(CO)ccn3)c2Cl)nc2cc(C(=O)NCCC(F)(F)F)c(N3CCC(C(F)(F)F)CC3)cc21 [Example 181]
7,> 100 nM,Cn1c(Nc2c(Cl)ccc(CNC(=O)c3n[nH]c4c3CCC4)c2Cl)nc2cc(C(=O)NCCC(F)(F)F)c(N3CCC(C(F)(F)F)CC3)cc21 [Example 183]
8,> 100 nM,Cn1c(Nc2c(Cl)ccc(CNC(=O)c3cc[nH]n3)c2Cl)nc2cc(C(=O)NCCC(F)(F)F)c(N3CCC(C(F)(F)F)CC3)cc21 [Example 184]
9,1 nM,Cn1c(Nc2c(Cl)ccc(CNC(=O)C3(C)CC3)c2Cl)nc2cc(C(=O)N[C@H]3CC[C@H](C(F)(F)F)CC3)c(N3CC4CC4C3)cc21 (stereo partly shown) [Example 187]
10,1 nM,Cn1c(Nc2c(Cl)ccc(CNC(=O)C3(C(F)(F)F)CC3)c2Cl)nc2cc(C(=O)N[C@H]3CC[C@H](C(F)(F)F)CC3)c(N3CC4CC4C3)cc21 (stereo partly shown) [Example 188]
11,3 nM,Cn1c(Nc2c(Cl)ccc(CNC(=O)C3(O)CC3)c2Cl)nc2cc(C(=O)N[C@H]3CC[C@H](C(F)(F)F)CC3)c(N3CC4CC4C3)cc21 (stereo partly shown) [Example 189]
12,9 nM,Cn1c(Nc2c(Cl)ccc(CNC(=O)C(C)(C)O)c2Cl)nc2cc(C(=O)N[C@H]3CC[C@H](C(F)(F)F)CC3)c(N3CC4CC4C3)cc21 (stereo partly shown) [Example 190]
13,2 nM,Cn1c(Nc2c(Cl)ccc(CNC(=O)C(C)(C)F)c2Cl)nc2cc(C(=O)N[C@H]3CC[C@H](C(F)(F)F)CC3)c(N3CC4CC4C3)cc21 (stereo partly shown) [Example 191]
14,1 nM,Cn1c(Nc2c(Cl)ccc(CNC(=O)[C@@](C)(O)C(F)(F)F)c2Cl)nc2cc(C(=O)N[C@H]3CC[C@H](C(F)(F)F)CC3)c(N3CC4CC4C3)cc21 (stereo partly shown) [Example 192]
15,2.5 nM,Cn1c(Nc2c(Cl)ccc(CNC(=O)[C@@](C)(O)C(F)(F)F)c2Cl)nc2cc(C(=O)N[C@H]3CC[C@H](C(F)(F)F)CC3)c(N3CC4CC4C3)cc21 (stereo partly shown) [Example 193]
16,2.1 nM,Cn1c(Nc2c(Cl)ccc(CNC(=O)C(C)(C)CO)c2Cl)nc2cc(C(=O)N[C@H]3CC[C@H](C(F)(F)F)CC3)c(N3CC4CC4C3)cc21 (stereo partly shown) [Example 194]
17,51 nM,CN(C)c1ccnc(C(=O)NCc2ccc(Cl)c(Nc3nc4cc(C(=O)N[C@H]5CC[C@H](C(F)(F)F)CC5)c(N5CC6CC6C5)cc4n3C)c2Cl)c1 (stereo partly shown) [Example 195]
18,9 nM,Cc1ccnc(C(=O)NCc2ccc(Cl)c(Nc3nc4cc(C(=O)N[C@H]5CC[C@H](C(F)(F)F)CC5)c(N5CC6CC6C5)cc4n3C)c2Cl)c1 (stereo partly shown) [Example 196]
19,> 100 nM,CNc1cncc(C(=O)NCc2ccc(Cl)c(Nc3nc4cc(C(=O)N[C@H]5CC[C@H](C(F)(F)F)CC5)c(N5CC6CC6C5)cc4n3C)c2Cl)c1 (stereo partly shown) [Example 198]
20,8 nM,Cc1ccc(C(=O)NCc2ccc(Cl)c(Nc3nc4cc(C(=O)N[C@H]5CC[C@H](C(F)(F)F)CC5)c(N5CC6CC6C5)cc4n3C)c2Cl)nc1C (stereo partly shown) [Example 199]

row,SMILES,IC50
1,Cn1c(Nc2c(Cl)ccc(CNC(=O)C(C)(C)C)c2F)nc2cc(C(=O)N[C@H]3CC[C@H](C(F)(F)F)CC3)c(N3CCC(C(F)(F)F)C3)cc21 (stereo partly shown) [Example 6],4 nM

# Same assay, conditions: Table C comparison of selected benzimidazoles, read-out: Cell IC50
row,IC50,SMILES
1,1 nM,"Cn1c(Nc2c(Cl)ccc(CNC(=O)C(C)(C)C)c2Cl)nc2cc(C(=O)N[C@H]3CC[C@H](C(F)(F)F)CC3)c(N3CCC(F)(F)C3)cc21 [Example 20, N-(trans-4-Trifluoromethyl-cyclohexyl)-2-{2,6-dichloro-3-[(2,2-dimethyl-propionylamino)-methyl]-phenylamino}-6-[3,3-difluoro-pyrrolidinyl]-1-methyl-1H-benzimidazole-5-carboxylic acid amide]"

# Same assay, conditions: mPGES-1 inhibitory effect IC50 in the cell assay, IL-1β 5 ng/ml, 10 nM arachidonic acid, 20-24 h
row,SMILES,IC50
1,"CC(C)(C)C(=O)NCc1ccc(Cl)c(Nc2nc3cc(C(=O)N[C@H]4CC[C@H](C(F)(F)F)CC4)c(N4CCOCC4)cc3n2CC(F)F)c1Cl [Example 71, N-(trans-4-Trifluoromethyl-cyclohexyl)-2-{2,6-dichloro-3-[(2,2-dimethyl-propionylamino)-methyl]-phenylamino}-6-[morpholin-1-yl]-(2,2-difluoroethyl)-benzimidazole-5-carboxylic acid amide]",< 1 nM

# Source: patent US8674113B2, “Compounds” (Boehringer Ingelheim International GmbH, priority 2010, dated 2014)
